Some test systems named below: CAKI-1; CCRF-CEM; LOX IMVI; HOP-92; HCT-116; HOP-62; SK-OV-3; KM12; MCF7; OVCAR-8; ACHN; SR; HT-29; UO-31; 786-0; NCI-H226; RPMI-8226; K562; SF-295; SK-MEL-5.
Common to all, as to assay: NCI anticancer screen, dose series, 48 h

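These data come from cells grown in 96-well plates and exposed to compound for 48 hours at five concentrations. Here, GI50 denotes the concentration required for 50% inhibition of growth.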 The source made the active and inactive calls. Rule as the data show it: active = GI50 up to about 1.1 µM and inactive = higher.

Take `NC(=O)N/N=C(/CC1C(=O)Oc2ccccc21)c1ccccc1O` (stereo not drawn): the GI50 in the experiment on CAKI-1 was 49 µM (inactive); in the experiment with CCRF-CEM, 22.4 µM (inactive); in the experiment on LOX IMVI, 20.4 µM (inactive); with HOP-92, 29.8 µM (inactive); with HCT-116, 29.6 µM (inactive); with HOP-62 it was 29 µM (inactive). Besides, the GI50 is 34.1 µM (inactive) with SK-OV-3; 31.9 µM (inactive) with KM12; 48.1 µM (inactive) in the experiment on MCF7; 28.6 µM (inactive) in the experiment with OVCAR-8; 39.7 µM (inactive) in the experiment on ACHN; 18.9 µM (inactive) in the experiment on SR. The GI50 with HT-29 is 69 µM (inactive); in the experiment with UO-31 it was 41.1 µM (inactive); in the experiment on 786-0 it was 33.4 µM (inactive); with NCI-H226, 24.4 µM (inactive); in the experiment with RPMI-8226 it was 14.1 µM (inactive); with K562 it was 30.8 µM (inactive). Moreover, the GI50 in the experiment on SF-295 was 42.5 µM (inactive); with SK-MEL-5, 58.6 µM (inactive).
In the case of `COc1ccc(C(OCC2OC(n3cc(C)c(=O)[nH]c3=O)CC2n2cc(Cn3cc(Cl)c(=O)[nH]c3=O)nn2)(c2ccccc2)c2ccccc2)cc1` (stereo not drawn), the GI50 was > 100 µM (inactive) in the experiment on CAKI-1; 2.95 µM (inactive) in the experiment with CCRF-CEM; > 100 µM (inactive) with LOX IMVI; 28.8 µM (inactive) with HOP-92; 33.9 µM (inactive) in the experiment with HCT-116; > 100 µM (inactive) with HOP-62. Also, the GI50 in the experiment with SK-OV-3 is > 100 µM (inactive); in the experiment on KM12, > 100 µM (inactive); with MCF7, 21.8 µM (inactive); in the experiment on OVCAR-8, > 100 µM (inactive); in the experiment on ACHN, > 100 µM (inactive); with SR it was 4.02 µM (inactive). The GI50 in the experiment with HT-29 was > 100 µM (inactive); with UO-31 it was > 100 µM (inactive); in the experiment on 786-0, > 100 µM (inactive); in the experiment on NCI-H226, > 100 µM (inactive); in the experiment with RPMI-8226 it was 4.31 µM (inactive); with SF-295, > 100 µM (inactive). In addition, the GI50 in the experiment with SK-MEL-5 is > 100 µM (inactive).
For `CN(C)C(=O)Oc1ccc(-c2cn3cc(NC(=O)c4ccccc4)ccc3n2)cc1`, the GI50 in the experiment with CAKI-1 was > 100 µM (inactive); in the experiment with CCRF-CEM it was 99.5 µM (inactive); in the experiment with LOX IMVI, 53 µM (inactive); with HOP-92 it was > 100 µM (inactive); with HCT-116, > 100 µM (inactive); with HOP-62 it was > 100 µM (inactive). Also, the GI50 in the experiment on SK-OV-3 is > 100 µM (inactive); with KM12 it was 55.5 µM (inactive); with MCF7, 31.7 µM (inactive); in the experiment on OVCAR-8, > 100 µM (inactive); in the experiment on ACHN, > 100 µM (inactive); in the experiment on SR it was 29.3 µM (inactive). The GI50 in the experiment with HT-29 was 87.3 µM (inactive); with UO-31, > 100 µM (inactive); in the experiment on 786-0, > 100 µM (inactive); with NCI-H226 it was > 100 µM (inactive); in the experiment on RPMI-8226 it was 19.1 µM (inactive); in the experiment on K562, 19.5 µM (inactive). Moreover, the values for the GI50 in the experiment on SF-295 and in the experiment with SK-MEL-5 were > 100 µM (inactive) and 21.4 µM (inactive), respectively.
Take `O=C(O)c1ccc(NC(c2ccccc2)c2ccc3cccnc3c2O)cc1` (stereo not drawn): the GI50 in the experiment on CAKI-1 is 7.83 µM (inactive); in the experiment on CCRF-CEM, 1.72 µM (inactive); in the experiment on LOX IMVI it was 7.8 µM (inactive); in the experiment on HOP-92, 20.2 µM (inactive); in the experiment on HCT-116, 3.67 µM (inactive); in the experiment on HOP-62, 6.15 µM (inactive). The GI50 was 13.6 µM (inactive) in the experiment with SK-OV-3; 5.14 µM (inactive) with KM12; 4.42 µM (inactive) in the experiment on MCF7; 3.85 µM (inactive) in the experiment with OVCAR-8; 8.41 µM (inactive) in the experiment on ACHN; 3.32 µM (inactive) in the experiment on SR. The GI50 is 5.15 µM (inactive) in the experiment on HT-29; 5.75 µM (inactive) in the experiment with UO-31; 6.04 µM (inactive) in the experiment with 786-0; 3.88 µM (inactive) in the experiment with NCI-H226; 4.38 µM (inactive) in the experiment with RPMI-8226; 3.56 µM (inactive) in the experiment with K562. The GI50 with SF-295 is 4 µM (inactive); in the experiment with SK-MEL-5 it was 6.65 µM (inactive).
Take `O=c1[nH]nc(-c2ccccc2)n1/N=C/c1cccc([N+](=O)[O-])c1`: the GI50 is > 100 µM (inactive) in the experiment on CAKI-1; > 100 µM (inactive) in the experiment with CCRF-CEM; > 100 µM (inactive) in the experiment with LOX IMVI; > 100 µM (inactive) in the experiment on HOP-92; > 100 µM (inactive) with HCT-116; 28.7 µM (inactive) in the experiment on HOP-62. The GI50 with SK-OV-3 was 14.9 µM (inactive); in the experiment with KM12, > 100 µM (inactive); in the experiment with MCF7 it was > 100 µM (inactive); in the experiment with OVCAR-8, 93.5 µM (inactive); with ACHN it was > 100 µM (inactive); with SR, 77.8 µM (inactive). In addition, the GI50 with HT-29, with UO-31, with 786-0, in the experiment on NCI-H226, in the experiment on RPMI-8226 and with K562 was > 100 µM (inactive) each time. The GI50 in the experiment with SF-295 is 59.7 µM (inactive); in the experiment with SK-MEL-5, > 100 µM (inactive).
With `Cc1ccc(NC(=O)CSc2nc(C)nc3c2sc(=S)n3-c2ccccc2)cc1`, the GI50 in the experiment on CAKI-1 is > 10 µM (inactive); in the experiment with CCRF-CEM, 9.23 µM (inactive); in the experiment with LOX IMVI, > 10 µM (inactive); in the experiment on HOP-92 it was 2.71 µM (inactive); with HCT-116 it was 4.24 µM (inactive); in the experiment on HOP-62, 2.29 µM (inactive). The GI50 was 8.2 µM (inactive) in the experiment with SK-OV-3; > 10 µM (inactive) with KM12; > 10 µM (inactive) with MCF7; 6.76 µM (inactive) in the experiment on OVCAR-8; 8.77 µM (inactive) in the experiment with ACHN; 9.89 µM (inactive) with SR. Also, the GI50 in the experiment on HT-29 is 7.36 µM (inactive); with 786-0, 2.37 µM (inactive); in the experiment on NCI-H226, 3.33 µM (inactive); in the experiment with RPMI-8226, > 10 µM (inactive); with K562, > 10 µM (inactive); in the experiment with SF-295 it was 5 µM (inactive). Further, the GI50 in the experiment with SK-MEL-5 was > 10 µM (inactive).
For the compound `COC1CC(N)(c2ccccc2)C(O)C(C)O1` (stereo not drawn), the GI50 in the experiment on CAKI-1, in the experiment with CCRF-CEM, in the experiment with LOX IMVI, in the experiment on HOP-92, in the experiment on HCT-116 and in the experiment with HOP-62 was > 100 µM (inactive) each time. Also, the GI50 in the experiment with SK-OV-3, with MCF7, with OVCAR-8, in the experiment on ACHN, in the experiment on SR and with UO-31 was > 100 µM (inactive) each time. Moreover, the GI50 in the experiment on 786-0, in the experiment with NCI-H226, in the experiment on RPMI-8226, with K562, with SF-295 and in the experiment on SK-MEL-5 was > 100 µM (inactive) throughout.
For `O/N=C\c1c(O)ccc2ccccc12`, the GI50 was 30.8 µM (inactive) in the experiment on CAKI-1; 47.2 µM (inactive) in the experiment on CCRF-CEM; 45.8 µM (inactive) in the experiment with LOX IMVI; 73.8 µM (inactive) in the experiment on HOP-92; 38.9 µM (inactive) in the experiment with HCT-116; 70.1 µM (inactive) in the experiment with HOP-62. Moreover, the GI50 was 36.9 µM (inactive) in the experiment on SK-OV-3; 42.3 µM (inactive) in the experiment on KM12; 37.8 µM (inactive) in the experiment with MCF7; 9.12 µM (inactive) in the experiment with OVCAR-8; 24.8 µM (inactive) in the experiment on ACHN; 21.2 µM (inactive) in the experiment on SR. Besides, the GI50 was 54.5 µM (inactive) in the experiment with HT-29; 46.2 µM (inactive) with 786-0; 33.3 µM (inactive) with NCI-H226; 49.8 µM (inactive) in the experiment with RPMI-8226; 46.8 µM (inactive) in the experiment on K562; 41.7 µM (inactive) with SF-295. For the same compound, the GI50 with SK-MEL-5 is 46.7 µM (inactive).
For `C/C(CC(O)(C(F)(F)Cl)C(F)(F)Cl)=N\Nc1ccccc1`, the GI50 with CAKI-1 was 22.2 µM (inactive); with CCRF-CEM, 29 µM (inactive); in the experiment on LOX IMVI, 27.5 µM (inactive); in the experiment on HOP-92, 21.7 µM (inactive); with HCT-116, 34.5 µM (inactive); in the experiment on SK-OV-3, 29.4 µM (inactive). The GI50 in the experiment with KM12 is 29.1 µM (inactive); in the experiment with MCF7 it was 23.2 µM (inactive); in the experiment with OVCAR-8 it was 36.7 µM (inactive); in the experiment on ACHN it was 27 µM (inactive); with SR it was 39.1 µM (inactive); with HT-29, 42.9 µM (inactive). For the same compound, the GI50 is 31.2 µM (inactive) in the experiment with UO-31; 41.1 µM (inactive) in the experiment on 786-0; 25.2 µM (inactive) with NCI-H226; 30.2 µM (inactive) in the experiment with RPMI-8226; 35.5 µM (inactive) in the experiment on K562; 42.3 µM (inactive) with SF-295. Also, in the experiment with SK-MEL-5, the GI50 was 19.1 µM (inactive).
For the compound `CCCCCCCCCC[C@H](O)[C@H]1CC[C@@H]([C@@H](O)CC[C@H](O)[C@@H]2CCC(CCCCCCC[C@@H](O)CC3=C[C@H](C)OC3=O)O2)O1` (stereo partly drawn), the GI50 in the experiment on CAKI-1 was 3.22 µM (inactive); with CCRF-CEM, 1.11 µM (active); in the experiment on LOX IMVI it was 0.212 µM (active); with HOP-92 it was 1.02 µM (active); in the experiment on HCT-116, 1.16 µM (inactive); with HOP-62 it was 1.65 µM (inactive). Besides, the GI50 in the experiment on KM12 is 1.53 µM (inactive); in the experiment with MCF7, 1.49 µM (inactive); with OVCAR-8, 1.95 µM (inactive); in the experiment on ACHN, 1.21 µM (inactive); with SR it was 2.05 µM (inactive); in the experiment with HT-29, 1.73 µM (inactive). For the same compound, the GI50 in the experiment on UO-31 is 0.00416 µM (active); with 786-0, 1.79 µM (inactive); with NCI-H226 it was 1.57 µM (inactive); with RPMI-8226, 2.52 µM (inactive); in the experiment on K562 it was 1.37 µM (inactive); in the experiment with SF-295 it was 1.73 µM (inactive). Further, the GI50 in the experiment with SK-MEL-5 was 1.5 µM (inactive).

The values above are taken from ChEMBL document CHEMBL1201862, “PubChem BioAssay data set” (2004).
